The target of test [1] is T1, NPC1 (Cricetulus griseus, UniProt Q9JLG3).
T1 construct: CHO-7 cells in the medium are deprived of cholesterol to induce the LDL receptors biosynthesis; endogenous in cells; host or cells: CHO-7 cells
T1 sequence (Q9JLG3 23-1277): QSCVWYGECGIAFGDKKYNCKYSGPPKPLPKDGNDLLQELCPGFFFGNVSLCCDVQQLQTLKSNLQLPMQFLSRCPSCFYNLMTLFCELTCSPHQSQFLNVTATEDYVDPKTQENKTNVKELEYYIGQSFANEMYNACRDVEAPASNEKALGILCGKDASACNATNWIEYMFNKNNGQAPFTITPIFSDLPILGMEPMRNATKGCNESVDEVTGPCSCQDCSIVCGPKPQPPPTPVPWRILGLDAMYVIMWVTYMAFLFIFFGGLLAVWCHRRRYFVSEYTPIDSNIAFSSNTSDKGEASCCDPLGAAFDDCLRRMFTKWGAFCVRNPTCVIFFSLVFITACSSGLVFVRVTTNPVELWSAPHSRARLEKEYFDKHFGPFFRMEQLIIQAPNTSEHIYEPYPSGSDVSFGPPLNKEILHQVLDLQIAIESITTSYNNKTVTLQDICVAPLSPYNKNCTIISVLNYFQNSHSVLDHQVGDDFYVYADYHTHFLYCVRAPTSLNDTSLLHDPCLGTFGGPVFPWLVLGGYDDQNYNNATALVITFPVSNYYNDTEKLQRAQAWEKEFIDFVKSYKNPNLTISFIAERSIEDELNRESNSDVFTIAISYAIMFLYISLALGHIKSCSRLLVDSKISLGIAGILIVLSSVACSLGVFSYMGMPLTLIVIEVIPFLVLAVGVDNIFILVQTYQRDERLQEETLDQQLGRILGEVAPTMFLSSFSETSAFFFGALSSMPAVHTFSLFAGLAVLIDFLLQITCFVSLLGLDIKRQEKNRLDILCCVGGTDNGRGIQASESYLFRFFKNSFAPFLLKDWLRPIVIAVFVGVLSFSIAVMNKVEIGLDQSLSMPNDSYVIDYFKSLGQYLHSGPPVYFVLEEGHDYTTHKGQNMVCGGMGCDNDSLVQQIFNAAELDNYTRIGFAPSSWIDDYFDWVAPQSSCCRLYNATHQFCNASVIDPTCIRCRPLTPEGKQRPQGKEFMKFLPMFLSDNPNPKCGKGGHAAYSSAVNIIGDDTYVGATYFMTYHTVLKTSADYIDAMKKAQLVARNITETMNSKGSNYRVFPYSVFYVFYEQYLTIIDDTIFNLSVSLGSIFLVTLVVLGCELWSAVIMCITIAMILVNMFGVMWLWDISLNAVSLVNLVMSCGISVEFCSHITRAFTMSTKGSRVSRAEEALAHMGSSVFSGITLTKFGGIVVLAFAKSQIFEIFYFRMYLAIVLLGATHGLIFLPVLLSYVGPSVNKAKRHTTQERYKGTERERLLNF
The experiment in a line: Cholesterol re-esterification (ACAT) assay measuring NPC1-mediated export of cholesterol from lysosomes in CHO-7 cells. The test is classed as cell-based. The conditions noted are these: for cholesteryl [14C] oleate formed, Repeat 1 / cholesteryl [14C] oleate formed, Repeat 2: Fig. 2 source data; for cholesteryl [14C] oleate formed, Repeat 3 / cholesteryl [14C] oleate formed, Repeat 4: Supplementary Fig. 3 source data. An excerpt: Itraconazole has three chiral centers (Supplementary Fig. 2a). The pharmaceutical form contains four cis-stereoisomers in a 1:1:1:1 molar ratio (Supplementary Fig. 2a–d). To determine the activity of the cis-stereoisomers, the individual isomers were isolated and identified based on their optical rotation in chloroform following a previous report (Supplementary Fig. 2e)[26]. Then, they were separately tested in a cholesterol re-esterification assay used to measure NPC1-mediated export of cholesterol from lysosomes. Briefly, CHO-7 cells in the medium are deprived of cholesterol to induce the LDL receptors biosynthesis. The cells are then incubated with fetal calf serum (FCS) that contains LDL. The LDL-derived cholesterol will now be transported by functional NPC1 protein from the lysosome to the endoplasmic reticulum (ER). The acyl-CoA:cholesterol actyltransferase named ACAT can now re-esterify the cholesterol in the ER. Therefore, the cells were pulse-labeled with [^14C] oleate and we can measure the synthesis of cholesteroyl [^14C] oleate to evaluate the activity of NPC1 protein. Using this assay, we tested the ability of various itraconazole to inhibit NPC1 activity.
Fig. 2 ACAT activity of itraconazole and ketoconazole in CHO-7 cells. On day 0, CHO-7 cells were set up in medium A with 5% LPDS at 2.5 × 10^5 cells/well in 6-well dish. On day 2, cells were switched to medium A with 5% LPDS containing 50 µM sodium compactin and 50 µM sodium mevalonate. On day 3 the cells received fresh medium B containing compactin and mevalonate with various concentration compounds in the presence of 10% FCS containing lipoproteins. After incubation for 4 h at 37 °C, each cell monolayer was pulse-labeled for 2 h with 0.1 mM sodium [^14C] oleate (5792 dpm/nmol). The cells were then harvested for measurement of their content of cholesteryl [^14C] oleate and [^14C] triglycerides, as described in Methods. […] Itraconazole mixture, isomer A (Supplementary Fig. 2a), isomer B (Supplementary Fig. 2b) and isomer C (Supplementary Fig. 2c) were added at final concentrations of 0.3 μM. The isomer D (Supplementary Fig. 2d), I-Br and ketoconazole were added at final concentrations of 1 μM. The biological repeats are shown as individual values. Source data are provided as a Source Data file.
On day 0, cells were set up in medium A with 5% LPDS at 2.5 × 10^5 cells/well in six-well dish. On day 2, cells were switched to medium A with 5% LPDS containing 50 µM sodium compactin and 50 µM sodium mevalonate. On day 3 the cells received fresh medium B containing compactin and mevalonate with indicated concentration triazole compounds in the presence of 10% FCS containing lipoproteins. After incubation for 4 h at 37 °C, each cell monolayer was pulse-labeled for 2 h with 0.1 mM sodium [^14C] oleate (5792 dpm/nmol). The cells were then harvested for measurement of their content of cholesteryl [^14C] oleate and [^14C] triglycerides.
The rate of incorporation of [^14C] oleate into cholesteryl [^14C] oleate and [^14C] triglycerides by monolayers of NPC1^−/− cells and CHO-7 cells was measured as described previously. In brief, cells were switched to medium containing LPDS supplemented with compactin and mevolonate at 16 h before the experiments. On the day of the experiment, cells were incubated for 4 h with fresh medium containing FCS as a source of cholesterol-containing lipoproteins. Cells were then pulse –labeled for 2 h with 0.1 mM sodium [^14C] oleate. Cells were then washed, and the lipids were extracted in hexane:isopropanol (3:2, vol:vol), separated on a silica gel G thin-layer chromatogram (developed in heptane:ethylether:acetic acid, 90:30:1), and quantified by scintillation counting with the use of an internal standard for recovery.

Test [2] has as its system NPC1-mediated cholesterol export. The conditions noted are these: cited from earlier work.
In test [3] the target is T1, NPC1. Conditions: cultured cells; cited from earlier work.

For `CCC(C)n1ncn(-c2ccc(N3CCN(c4ccc(OCC5COC(Cn6cncn6)(c6ccc(Cl)cc6Cl)O5)cc4)CC3)cc2)c1=O` (centres unmarked) [Itra-A], the “cholesteryl [14C] oleate formed, Repeat 1” value on NPC1 [1] (0.01 uM compound) is reported as 3.345 nanomoles formed per hour per milligram cell protein; at NPC1 [1] (0.03 uM compound) it was 2.117 nanomoles formed per hour per milligram cell protein; on NPC1 [1] (0.06 uM compound), 1.347 nanomoles formed per hour per milligram cell protein; at NPC1 [1] (0.1 uM compound) it was 0.6494 nanomoles formed per hour per milligram cell protein; on NPC1 [1] (0.3 uM compound) it was 0.1828 nanomoles formed per hour per milligram cell protein. Besides, the “cholesteryl [14C] oleate formed, Repeat 2” value at NPC1 [1] (0.01 uM compound) is 3.639 nanomoles formed per hour per milligram cell protein; on NPC1 [1] (0.03 uM compound) it was 3.138 nanomoles formed per hour per milligram cell protein; at NPC1 [1] (0.06 uM compound), 1.367 nanomoles formed per hour per milligram cell protein; on NPC1 [1] (0.1 uM compound), 0.4243 nanomoles formed per hour per milligram cell protein; on NPC1 [1] (0.3 uM compound), 0.9513 nanomoles formed per hour per milligram cell protein. Also, the “cholesteryl [14C] oleate formed, Repeat 3” value on NPC1 [1] (0.01 uM compound) was 4.944 nanomoles formed per hour per milligram cell protein; on NPC1 [1] (0.03 uM compound), 2.06 nanomoles formed per hour per milligram cell protein; on NPC1 [1] (0.06 uM compound) it was 2.476 nanomoles formed per hour per milligram cell protein; on NPC1 [1] (0.1 uM compound) it was 0.5346 nanomoles formed per hour per milligram cell protein; at NPC1 [1] (0.3 uM compound), 0.009558 nanomoles formed per hour per milligram cell protein. Further, the “cholesteryl [14C] oleate formed, Repeat 4” value is on record as 4.771 nanomoles formed per hour per milligram cell protein on NPC1 [1] (0.01 uM compound); 3.899 nanomoles formed per hour per milligram cell protein at NPC1 [1] (0.03 uM compound); 3.208 nanomoles formed per hour per milligram cell protein at NPC1 [1] (0.06 uM compound); 0.7537 nanomoles formed per hour per milligram cell protein at NPC1 [1] (0.1 uM compound); 0.01486 nanomoles formed per hour per milligram cell protein at NPC1 [1] (0.3 uM compound). The IC50 at NPC1 [1] (read-out: IC50 (concentration at which each compound inhibited cholesterol esterification by 50%), 10% FCS, 4 h then 2 h [14C] oleate pulse) came out at 20 nM.

For `CCN(CC)CCO[C@H]1CC[C@@]2(C)C(=CC[C@@H]3[C@@H]2CC[C@]2(C)C(=O)CC[C@@H]32)C1` [U18666A], the “inhibition of cholesterol export from lysosomes” value in test [2] is listed as “inhibit cholesterol export from lysosomes”. The “inhibition of P-X cross-linking to NPC1” value on NPC1 [3] is given as “inhibited”.
